Here are results for four compounds from US11369585B2, “Compositions, methods, systems and/or kits for preventing and/or treating neoplasms” (Research Cancer Institute of America, priority 2017, dated 2022).

The test system of data set [1] is triple negative breast cancer. The note with it: cited from earlier work.
For data set [2], the system named is stage four pancreatic cancer. Briefly: Case study 3: laboratory tests (VEGF, IL-8, TGF, CA 19.9). It counts as in vivo, human. Particulars: two months without epigenetic therapies, Lynparza continued; increased from 8565. The source says: (§1) This is a case study of a person with history of stage four pancreatic cancer who was diagnosed after abdominal pain, with adenocarcinoma of pancreas metastasized to their liver. They had explored all potential therapies and their oncologist had given them less than 3 months to live and had referred them to hospice.
They were immediately started on daily IV epigenetic therapies in combination with PARP inhibitors, which they received for two weeks after which their laboratory tests were repeated.
(§2) After two weeks of epigenetic therapies, his VEGF decreased from 248 to 70.
(§3) Thus, Lynparza alone was not sufficient to retard tumor growth. Upon their return to the clinic, their tumor marker CA 19.9 was analyzed.

The test system of data set [3] is cfDNA somatic alterations. The experiment in a line: Case study 3: Guardant360 % cfDNA with somatic alterations. It counts as in vivo, human. The note with it: Lynparza alone.
Text: Therefore, clinical correlation is advised.
as §2
For example, KRAS mutant allele frequency (MAF) decreased from over 50 percent to 5.6, TP53 decreased from over 50 percent down to 5.1 percent (FIG. 19).

The subject of data set [4] is adenocarcinoma of pancreas metastasized to liver. The experiment in a line: Case study 3: clinical course. Particulars: epigenetic therapies stopped, Lynparza continued. It counts as in vivo, human.
Text: as §1
They were able to walk again independently. They started to do clinically well. […] Edema in their lower extremities improved.
as §3

The subject of data set [5] is serous ovarian carcinoma lesions. Briefly: Case study 2: whole body PET scan and abdominal CT scan restaging. The note with it: Niraparib 300 mg daily only.
The conditions of data set [6]: cited from earlier work.
The test system of data set [7] is glioma cells. Particulars: cited from earlier work.
[8] abbreviates: abdominal CT about one month after stopping epigenetic therapies, from 16 mm.

As to `NC(=O)c1ccc(I)c([N+](=O)[O-])c1` [Iniparib], the “phase II trial outcome” value in data set [1] (in vivo) is reported as “promising results”. Further, the “survival in phase III trial” value in data set [1] (patients also received cytotoxic chemotherapy) was “no improvement in survival”.
Regarding `O=C(c1cc(Cc2n[nH]c(=O)c3ccccc23)ccc1F)N1CCN(C(=O)C2CC2)CC1` [Lynparza], the “tumor marker CA 19.9” value in data set [2] worked out at 45988. Further, the “cfDNA gene alterations (FGF2, C Myc, EGFR, PI3K, CDK4, CDK6, NF-1, KIT, TP53, PDGF, KRAS, BRCA1)” value in data set [3] is reported as “did not change”. Further, the disease course result in data set [4] was “their disease progressed”.
As for `NC(=O)c1cccc2cn(-c3ccc([C@@H]4CCCNC4)cc3)nc12` [Niraparib], in data set [5] (setting [8]), the “abdominal mesenteric artery LN size” value turned out to be 28 mm and the retroperitoneal node size came out at 21 mm. This compound showed a periaortic nodes size in data set [5] (abdominal CT about one month after stopping epigenetic therapies, from 24 mm) of 32 mm. Besides, the “overall response on abdominal CT scan” value in data set [5] (about one month after stopping epigenetic therapies) is on record as “mixed response with progression”.
In the case of `O=c1c(O)c(-c2ccc(O)c(O)c2)oc2cc(O)cc(O)c12` [quercetin], the water solubility entry in data set [6] is on record as “not water soluble”. Moreover, the effect on angiogenesis entry in data set [7] is given as “suppression of angiogenesis”.
